These results are taken from PubChem BioAssay (NCI).

The structures appear in SMILES notation.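 Dose response: 5 concentrations. Exposure: 48 h. Format: 96-well plates. Endpoint: linear interpolation; highest concentration if not reached. Abbreviation: GI50, concentration required for 50% inhibition of growth. TGI marks complete inhibition of growth.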

Test systems include EKVX NSCLC; SK-MEL-5 melanoma; COLO 205 colon; OVCAR-4 ovarian; UACC-62 melanoma; IGROV1 ovarian; U251 CNS; MCF7 breast; HS 578T breast; BT-549 breast.
Common to all, as to assay: NCI-60 cell line screen, 48 h

With `COC(=O)C(=O)C(C(=O)C(=O)Nc1ccccc1C(N)=O)c1nc2ccc(C(=O)c3ccccc3)cc2[nH]c1=O` (centres undefined), the TGI is more than 100 µM in the test with EKVX NSCLC; more than 100 µM with SK-MEL-5 melanoma; more than 100 µM in the test on COLO 205 colon; more than 100 µM in the test with OVCAR-4 ovarian; 65.4 µM in the test with UACC-62 melanoma; more than 100 µM in the test with IGROV1 ovarian. In the test on U251 CNS, this compound registered a TGI of more than 100 µM.

Regarding `O=C1c2cccc3cccc(c23)C(=O)N1CCCN1CCN(CCCN2C(=O)c3cccc4cccc(c34)C2=O)CC1`, the TGI in the test on EKVX NSCLC, in the test with SK-MEL-5 melanoma, in the test with COLO 205 colon, in the test on OVCAR-4 ovarian, in the test with UACC-62 melanoma and in the test on IGROV1 ovarian was more than 100 µM throughout. Further, the TGI in the test on U251 CNS is more than 100 µM.

As for `CN1c2ccccc2C(=O)Nc2cnc(Cl)nc21`, the TGI in the test on EKVX NSCLC, in the test on SK-MEL-5 melanoma, in the test with COLO 205 colon, in the test on OVCAR-4 ovarian, in the test on UACC-62 melanoma and in the test on IGROV1 ovarian was more than 100 µM in each case. The TGI in the test on U251 CNS and in the test on MCF7 breast was more than 100 µM throughout.

As to `COc1cc(CC(=O)c2ccc3c(c2)OCO3)cc(OC)c1OC`, the TGI with EKVX NSCLC, with SK-MEL-5 melanoma, in the test on COLO 205 colon, in the test on OVCAR-4 ovarian, in the test with UACC-62 melanoma and in the test on IGROV1 ovarian was more than 100 µM in each case. The compound also came in with a TGI in the test on U251 CNS of more than 100 µM.

For the compound `COc1ccc(-n2nc(C)c3c2N(C)C2(C)C[C@@H]4C3(C)[C@@H]3CC4(C2)N(C)c2c(c(C)nn2-c2ccc(OC)cc2)[C@H]3C)cc1` (some centres undefined), the GI50 in the test with HS 578T breast was 4.27 µM; with OVCAR-4 ovarian it was 5.95 µM; in the test on UACC-62 melanoma, 12.6 µM; with IGROV1 ovarian it was 19.5 µM; in the test with BT-549 breast, 4.17 µM; in the test on U251 CNS it was 3.94 µM. Also, in the test on MCF7 breast, the GI50 was 4.02 µM. For the same compound, the TGI is 98 µM in the test with HS 578T breast; more than 100 µM in the test with OVCAR-4 ovarian; more than 100 µM with UACC-62 melanoma; more than 100 µM in the test with IGROV1 ovarian; more than 100 µM in the test with BT-549 breast; 22.5 µM in the test on U251 CNS. The same compound yielded a TGI in the test with MCF7 breast of more than 100 µM.

With `COC(=O)C1CCC(=NC2c3ccccc3-c3ccccc32)N1` (centres undefined), the TGI with EKVX NSCLC, in the test with COLO 205 colon, with OVCAR-4 ovarian, in the test on UACC-62 melanoma, with IGROV1 ovarian and in the test with U251 CNS was more than 100 µM each time.

With `O=C(OCc1nc2ccc(Br)cc2c(=O)n1-c1ccccc1)c1ccccc1O`, the TGI with EKVX NSCLC was more than 100 µM; in the test on SK-MEL-5 melanoma, 68.7 µM; in the test on COLO 205 colon it was more than 100 µM; in the test with OVCAR-4 ovarian it was more than 100 µM; in the test with UACC-62 melanoma, more than 100 µM; in the test with IGROV1 ovarian, more than 100 µM. The compound also registered a TGI in the test with U251 CNS of more than 100 µM.

With `Cc1cccc(CC(C)(C)C)c1NC(=O)C(=O)C(C(=O)c1ccc2ccccc2c1)C1OC(=O)c2ccccc21` (centres undefined), the TGI is 82.1 µM in the test on EKVX NSCLC; 26.7 µM in the test with SK-MEL-5 melanoma; 92 µM in the test with COLO 205 colon; more than 100 µM in the test on OVCAR-4 ovarian; 21.7 µM in the test on UACC-62 melanoma; 46.8 µM in the test on IGROV1 ovarian. In the test with U251 CNS, the TGI worked out at 17.8 µM.

As to `Cc1[nH]c(=O)nc(N/N=C/c2ccc(O)cc2)c1C(=O)Nc1ccc(Cl)cc1`, the TGI in the test with EKVX NSCLC, in the test with SK-MEL-5 melanoma, in the test with COLO 205 colon, in the test on OVCAR-4 ovarian, in the test on UACC-62 melanoma and in the test with IGROV1 ovarian was more than 100 µM each time. Also, the TGI with U251 CNS is more than 100 µM.

Consider `Cc1c(-c2coc(-c3ccc(Cl)cc3)n2)c(=O)n(-c2ccccc2)n1C`, for which the TGI in the test with EKVX NSCLC, with SK-MEL-5 melanoma, in the test with COLO 205 colon, in the test on OVCAR-4 ovarian, in the test with UACC-62 melanoma and with IGROV1 ovarian was more than 100 µM each time. In addition, the TGI in the test on U251 CNS is more than 100 µM.

In the case of `COc1ncnc2c(-c3ccco3)cn(COCc3ccccc3)c12`, the GI50 in the test on EKVX NSCLC is 11.5 µM; in the test with HS 578T breast, 18.6 µM; with SK-MEL-5 melanoma it was 1.28 µM; in the test on COLO 205 colon it was more than 50 µM; with OVCAR-4 ovarian, more than 50 µM; with UACC-62 melanoma, 8.2 µM. For the same compound, the GI50 is more than 50 µM with IGROV1 ovarian and 10.6 µM in the test on U251 CNS. The TGI with EKVX NSCLC, in the test with HS 578T breast, with SK-MEL-5 melanoma, in the test with COLO 205 colon, with OVCAR-4 ovarian and in the test on UACC-62 melanoma was more than 50 µM in each case. In addition, the TGI in the test with IGROV1 ovarian and in the test with U251 CNS was more than 50 µM each time.

For `COc1cc2c(c(OC)c1OC)-c1ccc(SC)c(=O)cc1[C@@H](NC(=O)c1ccc(C#N)cc1)CC2`, the TGI in the test with EKVX NSCLC is more than 100 µM; in the test on SK-MEL-5 melanoma, less than 0.01 µM; with COLO 205 colon, less than 0.01 µM; in the test with OVCAR-4 ovarian, more than 100 µM; with UACC-62 melanoma, more than 100 µM; in the test on IGROV1 ovarian, more than 100 µM. This compound also registered a TGI in the test on U251 CNS of less than 0.0316 µM.

As for `Fc1nc(F)nc(-c2c3ccccc3c3n2CCS3)n1`, the TGI with EKVX NSCLC is more than 100 µM; with SK-MEL-5 melanoma, more than 100 µM; in the test with COLO 205 colon, more than 100 µM; with OVCAR-4 ovarian, more than 100 µM; in the test on IGROV1 ovarian, more than 100 µM; in the test on U251 CNS, 92.7 µM.

Consider `CCOC(=O)NNC(=O)NC12CC3CC(CC(C3)C1)C2`, for which the TGI in the test with EKVX NSCLC, with SK-MEL-5 melanoma, with COLO 205 colon, in the test with OVCAR-4 ovarian, in the test on UACC-62 melanoma and in the test on IGROV1 ovarian was more than 100 µM each time. In the test with U251 CNS, this compound had a TGI of more than 100 µM.

For the compound `O=C1c2ccccc2C(=O)c2c1ccc1c3ccccc3n(Cc3ccccc3)c21`, the TGI in the test with EKVX NSCLC, with SK-MEL-5 melanoma, in the test with COLO 205 colon, with OVCAR-4 ovarian, with UACC-62 melanoma and in the test on IGROV1 ovarian was more than 100 µM throughout.
